Active and inactive are the calls of the source. No cut-off for these calls is given here.
Assays:
[1] = biological target: T1, Lysine-specific histone demethylase 1A (Homo sapiens, UniProt O60341); settings: 22 h
Description: Drug metabolism assessed as LSD1 (unknown origin)-mediated compound-FAD adduct formation after 22 hrs by MALDI-TOF mass spectrometric analysis

[2] = biological target: T2, Lysine-specific histone demethylase 2 (Homo sapiens, UniProt Q8NB78); experiment: biochemical
T2 sequence (Q8NB78 whole entry): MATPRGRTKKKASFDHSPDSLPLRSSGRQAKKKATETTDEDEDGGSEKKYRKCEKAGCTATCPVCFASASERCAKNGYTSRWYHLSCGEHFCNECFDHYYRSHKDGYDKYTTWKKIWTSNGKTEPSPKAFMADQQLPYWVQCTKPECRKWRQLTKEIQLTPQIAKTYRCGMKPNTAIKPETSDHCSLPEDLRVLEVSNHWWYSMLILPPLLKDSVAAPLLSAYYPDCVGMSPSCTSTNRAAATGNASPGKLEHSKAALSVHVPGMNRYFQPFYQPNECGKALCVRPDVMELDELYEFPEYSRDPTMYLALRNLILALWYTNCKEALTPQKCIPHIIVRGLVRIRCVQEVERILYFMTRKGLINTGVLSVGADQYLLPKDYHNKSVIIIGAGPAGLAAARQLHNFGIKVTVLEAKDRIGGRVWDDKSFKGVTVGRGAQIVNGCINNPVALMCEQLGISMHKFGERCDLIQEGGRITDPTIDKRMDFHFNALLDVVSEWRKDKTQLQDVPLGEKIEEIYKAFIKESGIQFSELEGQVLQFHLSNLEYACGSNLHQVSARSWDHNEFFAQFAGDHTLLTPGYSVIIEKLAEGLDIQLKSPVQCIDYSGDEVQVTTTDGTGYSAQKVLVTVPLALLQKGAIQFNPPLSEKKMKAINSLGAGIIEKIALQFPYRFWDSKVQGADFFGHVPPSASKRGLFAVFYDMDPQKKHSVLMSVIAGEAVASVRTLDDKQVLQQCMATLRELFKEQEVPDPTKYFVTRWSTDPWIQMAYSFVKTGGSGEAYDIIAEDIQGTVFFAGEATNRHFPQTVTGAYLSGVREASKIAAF
Description: Inhibition of full length N-terminal His-tagged human LSD2 (1 to 822 residues) expressed in Escherichia coli BL21(DE3) cells using H3K4me2 peptide substrate by MALDI-TOF mass spectrometric analysis

[3] = biological target: T3, Amine oxidase [flavin-containing] B (Homo sapiens, UniProt P27338); experiment: biochemical
T3 sequence (P27338 whole entry): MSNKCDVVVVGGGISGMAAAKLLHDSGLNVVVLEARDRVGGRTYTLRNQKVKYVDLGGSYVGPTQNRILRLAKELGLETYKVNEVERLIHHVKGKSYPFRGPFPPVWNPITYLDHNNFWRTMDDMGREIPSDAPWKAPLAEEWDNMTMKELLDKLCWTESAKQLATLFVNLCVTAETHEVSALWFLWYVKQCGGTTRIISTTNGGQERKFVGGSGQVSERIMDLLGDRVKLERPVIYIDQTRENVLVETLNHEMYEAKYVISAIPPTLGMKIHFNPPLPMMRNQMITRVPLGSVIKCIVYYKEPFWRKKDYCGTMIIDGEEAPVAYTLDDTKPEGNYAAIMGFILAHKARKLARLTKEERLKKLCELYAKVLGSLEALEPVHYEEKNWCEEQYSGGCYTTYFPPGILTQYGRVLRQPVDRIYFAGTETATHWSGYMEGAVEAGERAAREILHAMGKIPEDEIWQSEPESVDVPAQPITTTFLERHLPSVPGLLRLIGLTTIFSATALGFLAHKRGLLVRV
Description: Inhibition of human recombinant MAO-B expressed in baculovirus infected BTI insect cells using (4S)-4,5-dihydro-2-(6-hydroxybenzothiazolyl)-4-thiazolecarboxylic acid as substrate incubated for 60 mins by MAO-Glo assay

[4] = species on record: Homo sapiens
[5] = biological target: T4, Amine oxidase [flavin-containing] A (Homo sapiens, UniProt P21397); experiment: biochemical
T4 sequence (P21397 whole entry): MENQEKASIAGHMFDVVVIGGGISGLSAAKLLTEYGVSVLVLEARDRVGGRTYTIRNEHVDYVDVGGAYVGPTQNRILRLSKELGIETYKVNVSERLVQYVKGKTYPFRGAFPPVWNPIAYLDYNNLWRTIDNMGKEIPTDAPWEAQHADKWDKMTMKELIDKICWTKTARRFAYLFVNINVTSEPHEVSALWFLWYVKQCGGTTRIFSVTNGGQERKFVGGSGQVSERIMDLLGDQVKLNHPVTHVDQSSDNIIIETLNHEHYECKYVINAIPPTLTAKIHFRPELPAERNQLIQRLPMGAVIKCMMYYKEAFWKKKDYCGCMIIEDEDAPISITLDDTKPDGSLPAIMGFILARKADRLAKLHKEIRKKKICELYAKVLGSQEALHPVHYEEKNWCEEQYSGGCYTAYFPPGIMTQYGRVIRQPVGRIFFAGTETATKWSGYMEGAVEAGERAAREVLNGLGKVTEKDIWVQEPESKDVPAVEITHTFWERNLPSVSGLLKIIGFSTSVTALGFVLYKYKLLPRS
Description: Inhibition of human recombinant MAO-A expressed in baculovirus infected BTI insect cells using (4S)-4,5-dihydro-2-(6-hydroxybenzothiazolyl)-4-thiazolecarboxylic acid as substrate incubated for 60 mins by MAO-Glo assay

[6] = biological target: T1, Lysine-specific histone demethylase 1A; experiment: biochemical
Description: Inhibition of full length N-terminal His-tagged human recombinant LSD1 (1 to 852 residues) expressed in Escherichia coli BL21(DE3) cells using H3K4me2 peptide as substrate preincubated for 5 mins followed by substrate addition measured for 30 mins by peroxidase coupled assay

[7] = system: HeLa; experiment: Antiproliferative activity against human HeLa cells assessed as inhibition of cell viability at 12.5 to 100 uM treated for 24 hrs measured after 48 hrs by alamar blue assay in absence of fetal bovine serum; type: functional, cell-based
[8] = biological target: T5, Lysine-specific demethylase 5A (Homo sapiens, UniProt P29375)
T5 sequence (P29375 whole entry): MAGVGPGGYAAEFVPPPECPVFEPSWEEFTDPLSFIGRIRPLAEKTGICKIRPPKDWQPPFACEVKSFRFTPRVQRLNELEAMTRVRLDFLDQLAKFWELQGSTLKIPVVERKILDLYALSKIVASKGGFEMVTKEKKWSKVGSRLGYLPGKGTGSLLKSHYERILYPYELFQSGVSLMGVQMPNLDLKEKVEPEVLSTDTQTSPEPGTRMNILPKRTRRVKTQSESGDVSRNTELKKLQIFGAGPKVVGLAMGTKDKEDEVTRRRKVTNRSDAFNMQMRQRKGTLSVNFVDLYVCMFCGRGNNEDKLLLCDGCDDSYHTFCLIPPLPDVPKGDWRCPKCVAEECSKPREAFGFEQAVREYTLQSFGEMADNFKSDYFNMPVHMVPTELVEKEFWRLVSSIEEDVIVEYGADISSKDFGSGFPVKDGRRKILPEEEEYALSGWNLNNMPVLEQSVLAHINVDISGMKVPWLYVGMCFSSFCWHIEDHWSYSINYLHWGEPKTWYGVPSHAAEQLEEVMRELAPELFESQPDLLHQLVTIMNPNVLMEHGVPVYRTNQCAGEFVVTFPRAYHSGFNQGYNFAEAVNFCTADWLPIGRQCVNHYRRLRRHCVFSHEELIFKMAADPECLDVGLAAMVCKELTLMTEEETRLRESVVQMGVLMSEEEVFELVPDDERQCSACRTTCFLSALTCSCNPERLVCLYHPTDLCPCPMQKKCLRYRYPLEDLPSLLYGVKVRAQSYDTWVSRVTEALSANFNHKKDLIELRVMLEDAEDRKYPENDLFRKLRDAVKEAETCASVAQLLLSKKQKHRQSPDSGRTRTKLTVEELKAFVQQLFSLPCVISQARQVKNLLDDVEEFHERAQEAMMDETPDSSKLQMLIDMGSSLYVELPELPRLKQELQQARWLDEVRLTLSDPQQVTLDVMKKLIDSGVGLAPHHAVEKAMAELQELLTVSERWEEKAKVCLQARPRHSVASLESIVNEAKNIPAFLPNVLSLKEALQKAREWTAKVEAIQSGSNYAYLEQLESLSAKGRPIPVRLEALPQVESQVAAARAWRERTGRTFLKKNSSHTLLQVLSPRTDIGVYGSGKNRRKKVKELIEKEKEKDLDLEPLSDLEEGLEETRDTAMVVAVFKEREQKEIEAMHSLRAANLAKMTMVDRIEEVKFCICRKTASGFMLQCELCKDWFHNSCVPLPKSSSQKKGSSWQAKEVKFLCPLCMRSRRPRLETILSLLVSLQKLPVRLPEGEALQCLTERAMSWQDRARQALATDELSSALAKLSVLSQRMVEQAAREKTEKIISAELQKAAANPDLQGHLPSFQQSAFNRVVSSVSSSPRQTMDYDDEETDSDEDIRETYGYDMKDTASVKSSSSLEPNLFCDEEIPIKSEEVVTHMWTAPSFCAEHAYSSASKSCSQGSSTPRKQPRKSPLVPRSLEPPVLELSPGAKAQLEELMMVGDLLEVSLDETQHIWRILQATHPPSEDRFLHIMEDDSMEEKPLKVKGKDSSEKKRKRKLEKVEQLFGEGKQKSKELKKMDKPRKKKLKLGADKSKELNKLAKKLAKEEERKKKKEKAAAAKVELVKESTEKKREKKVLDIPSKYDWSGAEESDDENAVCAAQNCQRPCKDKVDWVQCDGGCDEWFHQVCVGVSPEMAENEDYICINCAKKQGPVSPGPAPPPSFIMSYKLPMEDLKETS
Description: Inhibition of JARID1A (unknown origin) using H3K4me3 peptide substrate preincubated for 5 mins followed by substrate addition by MALDI-TOF mass spectrometric analysis

[9] = species on record: Homo sapiens; remark: listed apart in the source
[10] = biological target: T1, Lysine-specific histone demethylase 1A; experiment: Inhibition of LSD1 in human HeLa cells assessed as H3K4me2/H3 ratio at 20 uM after 24 hrs by Western blot analysis in absence of fetal bovine serum; type: cell-based
[11] = species on record: Homo sapiens; remark: listed apart in the source
[12] = species on record: Homo sapiens; remark: listed apart in the source
[13] = biological target: T1, Lysine-specific histone demethylase 1A; experiment: Inhibition of LSD1 in human HeLa cells assessed as H3K4me2/H3 ratio at 5 uM after 24 hrs by Western blot analysis in absence of fetal bovine serum; type: cell-based
[14] = biological target: T5, Lysine-specific demethylase 5A; experiment: Inhibition of JARID1A in human HeLa cells assessed as H3K4me3/H3 ratio at 20 uM after 24 hrs by Western blot analysis in absence of fetal bovine serum; type: cell-based
[15] = biological target: T5, Lysine-specific demethylase 5A; experiment: Inhibition of JARID1A in human HeLa cells assessed as H3K4me3/H3 ratio at 10 uM after 24 hrs by Western blot analysis in absence of fetal bovine serum; type: cell-based
[16] = biological target: T1, Lysine-specific histone demethylase 1A; experiment: Inhibition of LSD1 in human HeLa cells assessed as H3K4me2/H3 ratio at 10 uM after 24 hrs by Western blot analysis in absence of fetal bovine serum; type: cell-based
[17] = biological target: T6, Lysine-specific histone demethylase 2 (Homo sapiens) (UniProt Q8NB78); experiment: Inhibition of LSD2 in human HeLa cells assessed as H3K4me1/H3 ratio at 5 uM after 24 hrs by Western blot analysis in absence of fetal bovine serum; type: cell-based
T6 sequence (whole entry): T2 sequence (Q8NB78 whole entry)

[18] = biological target: T6, Lysine-specific histone demethylase 2 (Homo sapiens); experiment: Inhibition of LSD2 in human HeLa cells assessed as H3K4me1/H3 ratio at 10 uM after 24 hrs by Western blot analysis in absence of fetal bovine serum; type: cell-based
[19] = biological target: T5, Lysine-specific demethylase 5A; experiment: Inhibition of JARID1A in human HeLa cells assessed as H3K4me3/H3 ratio at 5 uM after 24 hrs by Western blot analysis in absence of fetal bovine serum; type: cell-based
[20] = biological target: T6, Lysine-specific histone demethylase 2 (Homo sapiens); experiment: Inhibition of LSD2 in human HeLa cells assessed as H3K4me1/H3 ratio at 20 uM after 24 hrs by Western blot analysis in absence of fetal bovine serum; type: cell-based
[21] = biological target: T1, Lysine-specific histone demethylase 1A; experiment: Inhibition of LSD1 in human HeLa cells assessed as increase in H3K4me2 level after 24 hrs by Western blot analysis in absence of fetal bovine serum; type: cell-based
[22] = biological target: T1, Lysine-specific histone demethylase 1A; experiment: Irreversible inhibition of LSD1 (unknown origin) using H3K4me2 peptide substrate assessed as compound-FAD adduct formation after 22 hrs by MALDI-TOF mass spectrometric analysis
[23] = biological target: T1, Lysine-specific histone demethylase 1A; experiment: Time dependent irreversible inhibition of human LSD1 using H3K4me2 peptide as substrate at 0.1 to 6.4 uM incubated for 5 mins by fluorometric assay
[24] = system: HeLa; experiment: Antiproliferative activity against human HeLa cells assessed as reduction in cell viability at 25 to 100 uM treated for 24 hrs measured after 48 hrs by alamar blue assay in absence of fetal bovine serum; type: functional, cell-based

Drug metabolism [1]	IC50 [2]	IC50 [3]	IC50 [5]	IC50 [6]	IC50 [8]	Ratio [10]	Ratio [13]	Ratio [14]	Ratio [15]	Ratio [16]	Ratio [17]	Ratio [18]	Ratio [19]	Ratio [20]	Compound	Ratio IC50 [4]	inhibition [7]	Ratio IC50 [9]	Ratio IC50 [11]	Ratio IC50 [12]	further results
metabolite_detected	7.51 µM	30 µM	> 30 µM	0.32 µM	5.05 µM	1.52	–	–	–	–	–	–	–	–	CC(C)C[C@@H](NC(=O)[C@@H](CCCNN)NC(=O)[C@@H](CO)NC(=O)[C@H](CCCNC(=N)N)NC(=O)[C@@H]1CCCN1)C(=O)N[C@@H](C(=O)N[C@H](CCCNC(=N)N)C(=O)N[C@H](CCCCN)C(=O)N1CCC[C@@H]1C(=O)N[C@@H](CO)C(=O)N[C@@H](CC(=O)O)C(=O)N1CCC[C@H]1C(=O)N[C@@H](CC(N)=O)C(=O)N[C@@H](CCCNC(=N)N)C(=O)N[C@H](CCCCNC(=O)[C@H](CCCNC(=N)N)NC(=O)[C@H](CCCNC(=N)N)NC(=O)[C@H](CCCNC(=N)N)NC(=O)[C@H](CCCNC(=N)N)NC(=O)[C@H](CCCNC(=N)N)NC(=O)[C@H](CCCNC(=N)N)NC(=O)[C@H](CCCNC(=N)N)NC(=O)[C@H](N)CCCNC(=N)N)C(=O)N1CCC[C@H]1C(=O)N[C@H](CC(N)=O)C(=O)N[C@@H](Cc1ccc(O)cc1)C(=O)N[C@@H](CO)C(=O)N[C@@H](CCC(N)=O)C(N)=O)C(C)C	16	Active	> 94	94	23	–
metabolite_detected	23.2 µM	30 µM	> 30 µM	0.29 µM	12.9 µM	2.08	1.29	1.01	0.98	1.73	0.96	0.99	1.03	1.05	CC(C)C[C@@H](NC(=O)[C@@H](CCCNN)NC(=O)[C@@H](CO)NC(=O)[C@@H](CCCNC(=N)N)NC(=O)[C@H]1CCCN1)C(=O)N[C@@H](C(=O)N[C@H](CCCNC(=N)N)C(=O)N[C@@H](CCCCNC(=O)COCCOCCNC(=O)[C@@H](CCCNC(=N)N)NC(=O)[C@@H](CCCNC(=N)N)NC(=O)[C@@H](CCCNC(=N)N)NC(=O)[C@@H](CCCNC(=N)N)NC(=O)[C@@H](CCCNC(=N)N)NC(=O)[C@@H](CCCNC(=N)N)NC(=O)[C@@H](CCCNC(=N)N)NC(=O)[C@@H](N)CCCNC(=N)N)C(=O)N1CCC[C@H]1C(=O)N[C@@H](CO)C(=O)N[C@@H](CC(=O)O)C(=O)N1CCC[C@H]1C(=O)N[C@@H](CC(N)=O)C(=O)N[C@@H](CCCNC(=N)N)C(=O)N[C@@H](CCCCN)C(=O)N1CCC[C@H]1C(=O)N[C@H](CC(N)=O)C(=O)N[C@@H](Cc1ccc(O)cc1)C(=O)N[C@@H](CO)C(=O)N[C@@H](CCC(N)=O)C(N)=O)C(C)C	16	Active	> 94	94	23	inhibition [21]: Dose-dependent effect
–	–	–	–	–	–	1.34	–	–	–	–	–	–	–	–	CC(C)C[C@@H](NC(=O)[C@@H](CCCNN)NC(=O)[C@@H](CO)NC(=O)[C@H](CCCNC(=N)N)NC(=O)[C@@H]1CCCN1)C(=O)N[C@@H](C(=O)N[C@H](CCCNC(=N)N)C(=O)N[C@H](CCCCN)C(=O)N1CCC[C@@H]1C(=O)N[C@H](CO)C(=O)N[C@H](CC(=O)O)C(=O)N1CCC[C@@H]1C(=O)N[C@H](CC(N)=O)C(=O)N[C@H](CCCNC(=N)N)C(=O)N[C@H](CCCCN)C(=O)N1CCC[C@@H]1C(=O)N[C@@H](CC(N)=O)C(=O)N[C@H](Cc1ccc(O)cc1)C(=O)N[C@H](CO)C(=O)N[C@H](CCC(N)=O)C(N)=O)C(C)C	–	–	–	–	–	inhibition [22]: Active; TDI [23]: Active
metabolite_detected	13.2 µM	29 µM	> 30 µM	0.28 µM	6.74 µM	2.19	1.72	0.98	0.95	1.9	1.01	0.98	1.04	1.08	CC(C)C[C@H](NC(=O)[C@H](CCCNN)NC(=O)[C@H](CO)NC(=O)[C@@H](CCCNC(=N)N)NC(=O)[C@H]1CCCN1)C(=O)N[C@H](C(=O)N[C@@H](CCCNC(=N)N)C(=O)N[C@@H](CCCCNC(=O)[C@@H](CCCNC(=N)N)NC(=O)[C@@H](CCCNC(=N)N)NC(=O)[C@@H](CCCNC(=N)N)NC(=O)[C@@H](CCCNC(=N)N)NC(=O)[C@@H](CCCNC(=N)N)NC(=O)[C@@H](CCCNC(=N)N)NC(=O)[C@@H](CCCNC(=N)N)NC(=O)[C@@H](N)CCCNC(=N)N)C(=O)N1CCC[C@H]1C(=O)N[C@@H](CO)C(=O)N[C@@H](CC(=O)O)C(=O)N1CCC[C@H]1C(=O)N[C@@H](CC(N)=O)C(=O)N[C@@H](CCCNC(=N)N)C(=O)N[C@@H](CCCCN)C(=O)N1CCC[C@H]1C(=O)N[C@H](CC(N)=O)C(=O)N[C@@H](Cc1ccc(O)cc1)C(=O)N[C@@H](CO)C(=O)N[C@@H](CCC(N)=O)C(N)=O)C(C)C	16	–	> 94	94	23	inhibition [21]: Dose-dependent effect; Activity [24]: Active

Reference: ChEMBL document CHEMBL3774333, “Identification of SNAIL1 Peptide-Based Irreversible Lysine-Specific Demethylase 1-Selective Inactivators” (J Med Chem, 2016)
